Results reported in patent US8916702B2 (priority 2012, dated 2014).

tested on: HCV pseudoparticles (genotype 1a HCV E1 and E2 envelope, H77C isolate); assay: microbe, parasite or virus in culture; format: cell-based; settings: Hepatitis C virus, Huh-7, 48 h, HCV pseudoparticle infection of Huh7 cells, luciferase 2 days after infection; average of duplicates

Q: How did the EC50 turn out when COC(=O)[C@H](CCNC(=O)C(=O)Nc1cccc(-c2ccccc2)c1)NC(=O)c1ccc(Nc2nc(NC3(c4ccc(Cl)cc4)CC3)nc(OCC(F)(F)F)n2)cc1 [Compound 1522] was run?
A: 0.1 nM

Q: With O=C(NC[C@H](NC(=O)c1ccc(Nc2nc(NC3(c4ccc(Cl)cc4)CC3)nc(OCC(F)(F)F)n2)cc1)C(=O)O)C(=O)Nc1cc[nH]n1 [Compound 1353] as the compound, how does the EC50 read?
A: 1.66 nM

Q: With COc1cccc(CCNC(=O)C(=O)NC[C@H](NC(=O)c2ccc(Nc3nc(NC4(c5ccc(Cl)cc5)CC4)nc(OCC(F)(F)F)n3)cc2)C(=O)O)c1 [Compound 1398] as the compound, how does the EC50 read?
A: 2.19 nM

same assay, conditions: Hepatitis C virus, Huh-7, 48 h, HCV pseudoparticles (genotype 1a, H77C) in Huh7 cells; average of duplicate; luciferase 2 days after infection

Q: For CC(C)(CNC(=O)C(=O)Nc1ccc2cccnc2c1)CNC(=O)c1ccc(Nc2nc(NC3(c4ccc(Cl)cc4)CC3)nc(OCC(F)(F)F)n2)cc1 [Compound 3034], which EC50 is on record?
A: 0.04 nM

same assay, conditions: Hepatitis C virus, Huh-7, 48 h, HCV pseudoparticles, Huh7 cells, luciferase 2 days after infection; average of duplicates

Q: For CCc1cccc(NC(=O)C(=O)NC[C@H](NC(=O)c2ccc(Nc3nc(NC4(c5ccc(Cl)cc5)CC4)nc(OCC(F)(F)F)n3)cc2)C(=O)OC)c1 [Compound 3688], which EC50 is on record?
A: 0.97 nM

Q: Which EC50 does the source give for COC(=O)[C@H](CNC(=O)C(=O)Nc1ccc(C(F)(F)F)nc1)NC(=O)c1ccc(Nc2nc(NC3(c4ccc(Cl)cc4)CC3)nc(OCC(F)(F)F)n2)cc1 [Compound 3716] here?
A: 0.62 nM

same assay, conditions: Hepatitis C virus, Huh-7, 48 h, read-out: Activity (EC50 class), HCV pseudoparticle infection of Huh7 cells, luciferase 2 days after infection; EC50 expressed as class A/B

Q: Which EC50 does the source give for Cn1cc(CCNC(=O)C(=O)NC[C@@H](NC(=O)c2ccc(Nc3nc(NC4(c5ccc(Cl)cc5)CC4)nc(OCC(F)(F)F)n3)cc2)C(=O)O)cn1 [Compound 1413] here?
A: 0.01 to 10 nM

Q: Which EC50 does the source give for COC(=O)[C@H](CNC(=O)C(=O)NCC1CCCc2ccccc21)NC(=O)c1ccc(Nc2nc(NC3(c4ccc(Cl)cc4)CC3)nc(OCC(F)(F)F)n2)cc1 (stereo partly shown) [Compound 1299] here?
A: 0.01 to 10 nM

Q: Which EC50 does the source give for COC(=O)[C@H](CCNC(=O)C(=O)Nc1cccc(-c2ccccc2)c1)NC(=O)c1ccc(Nc2nc(NC3(c4ccc(Cl)cc4)CC3)nc(OCC(F)(F)F)n2)cc1 [Compound 1522] here?
A: 0.01 to 10 nM

Q: How did the EC50 turn out when COC(=O)[C@H](CCNC(=O)C(=O)Nc1cncn1C)NC(=O)c1ccc(Nc2nc(NC3(c4ccc(Cl)cc4)CC3)nc(OCC(F)(F)F)n2)cc1 [Compound 1225] was run?
A: 0.01 to 10 nM

Q: COC(=O)[C@H](CCNC(=O)C(=O)Nc1ccc(O)cc1)NC(=O)c1ccc(Nc2nc(NC3(c4ccc(Cl)cc4)CC3)nc(OCC(F)(F)F)n2)cc1 [Compound 1526] was tested. Which EC50 did it give?
A: 0.01 to 10 nM

Q: Which EC50 does the source give for O=C(NC[C@H](NC(=O)c1ccc(Nc2nc(NC3(c4ccc(Cl)cc4)CC3)nc(OCC(F)(F)F)n2)cc1)C(=O)O)C(=O)Nc1cc[nH]n1 [Compound 1353] here?
A: 0.01 to 10 nM

Q: How did the EC50 turn out when O=C(NCC[C@H](NC(=O)c1ccc(Nc2nc(NC3(c4ccc(Cl)cc4)CC3)nc(OCC(F)(F)F)n2)cc1)C(=O)O)C(=O)NC1CCCCC1 [Compound 1179] was run?
A: 0.01 to 10 nM

Q: With COC(=O)[C@@H](CCNC(=O)C(O)NCC1CC1c1cccc(F)c1)NC(=O)c1ccc(Nc2nc(NC3(c4ccc(Cl)cc4)CC3)nc(OCC(F)(F)F)n2)cc1 (stereo partly shown) [Compound 1376] as the compound, how does the EC50 read?
A: 0.01 to 10 nM

Q: Which EC50 does the source give for O=C(NCC[C@H](NC(=O)c1ccc(Nc2nc(NC3(c4ccc(Cl)cc4)CC3)nc(OCC(F)(F)F)n2)cc1)C(=O)O)C(=O)NCC1CC1c1ccc(F)cc1 (stereo partly shown) [Compound 1438] here?
A: 0.01 to 10 nM

Q: For O=C(NCC[C@H](NC(=O)c1ccc(Nc2nc(NC3(c4ccc(Cl)cc4)CC3)nc(OCC(F)(F)F)n2)cc1)C(=O)O)C(=O)Nc1ccc(F)cc1 [Compound 1272], which EC50 is on record?
A: 0.01 to 10 nM

Q: With COc1cccc(CCNC(=O)C(=O)NC[C@H](NC(=O)c2ccc(Nc3nc(NC4(c5ccc(Cl)cc5)CC4)nc(OCC(F)(F)F)n3)cc2)C(=O)O)c1 [Compound 1398] as the compound, how does the EC50 read?
A: 0.01 to 10 nM

Q: With CC(C)(CNC(=O)C(=O)Nc1ccc(F)cc1)CNC(=O)c1ccc(Nc2nc(NC3(c4ccc(Cl)cc4)CC3)nc(OCC(F)(F)F)n2)cc1 [Compound 1479] as the compound, how does the EC50 read?
A: 0.01 to 10 nM

Q: Which EC50 does the source give for CCC(CC)NC(=O)C(=O)NCC[C@H](NC(=O)c1ccc(Nc2nc(NC3(c4ccc(Cl)cc4)CC3)nc(OCC(F)(F)F)n2)cc1)C(=O)O [Compound 1126] here?
A: 0.01 to 10 nM

Q: How did the EC50 turn out when COC(=O)[C@@H](CCNC(=O)C(=O)Nc1ccccc1-c1ccccc1)NC(=O)c1ccc(Nc2nc(NC3(c4ccc(Cl)cc4)CC3)nc(OCC(F)(F)F)n2)cc1 [Compound 1528] was run?
A: 0.01 to 10 nM

Q: CC1CCCC(NC(=O)C(=O)NC[C@H](NC(=O)c2ccc(Nc3nc(NC4(c5ccc(Cl)cc5)CC4)nc(OCC(F)(F)F)n3)cc2)C(=O)O)C1 (stereo partly shown) [Compound 1087] was tested. Which EC50 did it give?
A: 0.01 to 10 nM

Q: O=C(NCC[C@H](NC(=O)c1ccc(Nc2nc(NC3(c4ccc(Cl)cc4)CC3)nc(OCC(F)(F)F)n2)cc1)C(=O)O)C(=O)NCc1cc(F)ccc1F [Compound 1189] was tested. Which EC50 did it give?
A: 0.01 to 10 nM

same assay, conditions: Hepatitis C virus, Huh-7, 48 h, read-out: Activity (EC50 class), HCV pseudoparticles, Huh7 cells, luciferase 2 days after infection; average of duplicates

Q: CCc1cccc(NC(=O)C(=O)NC[C@H](NC(=O)c2ccc(Nc3nc(NC4(c5ccc(Cl)cc5)CC4)nc(OCC(F)(F)F)n3)cc2)C(=O)OC)c1 [Compound 3688] was tested. Which EC50 did it give?
A: 0.01 to 10 nM

Q: COC(=O)[C@H](CCNC(=O)C(=O)Nc1cccc(C2=NC(C)=CC2)c1)NC(=O)c1ccc(Nc2nc(NC3(c4ccc(Cl)cc4)CC3)nc(OCC(F)(F)F)n2)cc1 [Compound 3601] was tested. Which EC50 did it give?
A: 0.01 to 10 nM

Q: Which EC50 does the source give for Cn1nnnc1-c1cccc(NC(=O)C(=O)NCC[C@H](NC(=O)c2ccc(Nc3nc(NC4(c5ccc(Cl)cc5)CC4)nc(OCC(F)(F)F)n3)cc2)C(=O)O)c1 [Compound 3655] here?
A: 0.01 to 10 nM

Q: How did the EC50 turn out when CC(C)(CNC(=O)C(=O)Nc1cccc(Oc2ccccc2)c1)CNC(=O)c1ccc(Nc2nc(NC3(c4ccc(Cl)cc4)CC3)nc(OCC(F)(F)F)n2)cc1 [Compound 3667] was run?
A: 0.01 to 10 nM

Q: How did the EC50 turn out when COC(=O)[C@H](CNC(=O)C(=O)Nc1ccc(C(F)(F)F)nc1)NC(=O)c1ccc(Nc2nc(NC3(c4ccc(Cl)cc4)CC3)nc(OCC(F)(F)F)n2)cc1 [Compound 3716] was run?
A: 0.01 to 10 nM

same assay, conditions: Hepatitis C virus, Huh-7, read-out: Activity (EC50 class), HCV pseudoparticles (genotype 1a, H77C) in Huh7 cells; EC50 expressed as class A/B

Q: Which EC50 does the source give for CN(CCCN(C)C(=O)c1ccc(Nc2nc(NC3(c4ccc(Cl)cc4)CC3)nc(OCC(F)(F)F)n2)cc1)C(=O)C(=O)N1CCCCC1 [Compound 3432] here?
A: 10 to 1000 nM

Q: With CCN(CC)CCNC(=O)c1ccc(NC(=O)C(=O)NC/C(=N/C(=O)c2ccc(Nc3nc(NC4(c5ccc(Cl)cc5)CC4)nc(OCC(F)(F)F)n3)cc2)C(=O)O)cc1 [Compound 3157] as the compound, how does the EC50 read?
A: 0.01 to 10 nM

Q: Which EC50 does the source give for CC(C)(CNC(=O)C(=O)Nc1ccc2cccnc2c1)CNC(=O)c1ccc(Nc2nc(NC3(c4ccc(Cl)cc4)CC3)nc(OCC(F)(F)F)n2)cc1 [Compound 3034] here?
A: 0.01 to 10 nM

Q: For Cc1ccc(NC(=O)C(=O)NCC(C)(C)CNC(=O)c2ccc(Nc3nc(NC4(c5ccc(Cl)cc5)CC4)nc(OCC(F)(F)F)n3)cc2)cc1F [Compound 3044], which EC50 is on record?
A: 0.01 to 10 nM

Q: How did the EC50 turn out when COC(=O)[C@H](CNC(=O)C(=O)Nc1ccc(N2CCOCC2)cc1)NC(=O)c1ccc(Nc2nc(NC3(c4ccc(Cl)cc4)CC3)nc(OCC(F)(F)F)n2)cc1 [Compound 3080] was run?
A: 0.01 to 10 nM

Q: For CC(C)(CNC(=O)C(=O)Nc1ccc(Cl)cc1C#N)CNC(=O)c1ccc(Nc2nc(NC3(c4ccc(Cl)cc4)CC3)nc(OCC(F)(F)F)n2)cc1 [Compound 3384], which EC50 is on record?
A: 0.01 to 10 nM

Q: Which EC50 does the source give for CC(C)(CNC(=O)C(=O)Nc1ccc(C(F)(F)F)cc1F)CNC(=O)c1ccc(Nc2nc(NC3(c4ccc(Cl)cc4)CC3)nc(OCC(F)(F)F)n2)cc1 [Compound 3409] here?
A: 0.01 to 10 nM

Q: Which EC50 does the source give for COC(=O)[C@H](CCNC(=O)C(=O)Nc1ccc(Cc2ccncc2)cc1)NC(=O)c1ccc(Nc2nc(NC3(c4ccc(Cl)cc4)CC3)nc(OCC(F)(F)F)n2)cc1 [Compound 3123] here?
A: 0.01 to 10 nM

Q: For CC(C)(CNC(=O)C(=O)NCc1ccccc1-c1ccccc1)CNC(=O)c1ccc(Nc2nc(NC3(c4ccc(Cl)cc4)CC3)nc(OCC(F)(F)F)n2)cc1 [Compound 3035], which EC50 is on record?
A: 0.01 to 10 nM

Q: With CCOC(=O)/C=C/c1ccc(NC(=O)C(=O)NCC(C)(C)CNC(=O)c2ccc(Nc3nc(NC4(c5ccc(Cl)cc5)CC4)nc(OCC(F)(F)F)n3)cc2)cc1 [Compound 3144] as the compound, how does the EC50 read?
A: 0.01 to 10 nM

Q: COC(=O)[C@H](CNC(=O)C(=O)Nc1ccc(-n2nc(C)cc2C)cc1)NC(=O)c1ccc(Nc2nc(NC3(c4ccc(Cl)cc4)CC3)nc(OCC(F)(F)F)n2)cc1 [Compound 3109] was tested. Which EC50 did it give?
A: 0.01 to 10 nM

Q: CC(C)(CNC(=O)C(=O)NOc1ccccc1)CNC(=O)c1ccc(Nc2nc(NC3(c4ccc(Cl)cc4)CC3)nc(OCC(F)(F)F)n2)cc1 [Compound 3064] was tested. Which EC50 did it give?
A: 0.01 to 10 nM

Q: O=C(NCCCCNC(=O)c1ccc(Nc2nc(NC3(c4ccc(Cl)cc4)CC3)nc(OCC(F)(F)F)n2)cc1)C(=O)Nc1cccc(F)c1 [Compound 3390] was tested. Which EC50 did it give?
A: 0.01 to 10 nM

Q: How did the EC50 turn out when O=C(N[C@H](CCNC(=O)c1ccc(Nc2nc(NC3(c4ccc(Cl)cc4)CC3)nc(OCC(F)(F)F)n2)cc1)C(=O)O)C(=O)N1CCc2ccccc2C1 [Compound 3495] was run?
A: 0.01 to 10 nM

Q: With CC(C)(CNC(=O)C(=O)Nc1ccccc1C(N)=O)CNC(=O)c1ccc(Nc2nc(NC3(c4ccc(Cl)cc4)CC3)nc(OCC(F)(F)F)n2)cc1 [Compound 3375] as the compound, how does the EC50 read?
A: 0.01 to 10 nM

Q: For COc1ccc(NC(=O)C(=O)NCC(C)(C)CNC(=O)c2ccc(Nc3nc(NC4(c5ccc(Cl)cc5)CC4)nc(OCC(F)(F)F)n3)cc2)c(C)c1 [Compound 3068], which EC50 is on record?
A: 0.01 to 10 nM
